Source: patent publication US20100298141A1, “SUBSTITUTED PYRIDINE N-OXIDE HERBICIDES” (E. I. DU PONT DE NEMOURS AND COMPANY, priority 2007, published 2010)

Experiments:
[1] = system: morningglory; assay: Test A pre-/postemergence greenhouse test; type: in vivo, Ipomoea spp.; details: for Morningglory plant response rating: 0 to 100 scale; for Plant response rating, Morningglory: 0 to 100 scale where 0 is no effect and 100 is complete control
Method in brief: (§1)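 Pots of loam–sand soil sown with the test species are sprayed preemergence on the soil surface; emerged seedlings (1–2 leaves, 2–10 cm) are sprayed postemergence at the same time. The vehicle is a non-phytotoxic solvent mixture with surfactant. Injury is scored visually after ~10 d in greenhouse.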

[2] = system: redroot pigweed; assay: Test A pre-/postemergence greenhouse test; type: in vivo, Amaranthus retroflexus; details: for Pigweed plant response rating: 0 to 100 scale
Method in brief: as §1

[3] = system: corn; assay: Test A pre-/postemergence greenhouse test; type: in vivo, Zea mays; details: for Corn plant response rating: 0 to 100 scale; for Plant response rating, Corn: 0 to 100 scale where 0 is no effect and 100 is complete control
Method in brief: as §1

[4] = system: Italian ryegrass; assay: Test C pre-/postemergence test; type: in vivo, Lolium multiflorum
Method in brief: (§2)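 Test chemicals were formulated with surfactant in a non-phytotoxic solvent and sprayed both on freshly planted seeds (preemergence) and on 1- to 4-leaf plants of 2–18 cm (postemergence). Flooded-paddy pots received compound directly into 3 cm of standing water, maintained for the test.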

[5] = system: wheat; assay: Test C pre-/postemergence test; type: in vivo, Triticum aestivum
Method in brief: as §2

[6] = system: wild oat; assay: Test C pre-/postemergence test; type: in vivo, Avena fatua
Method in brief: as §2

[7] = system: bermudagrass; assay: Test C pre-/postemergence test; type: in vivo, Cynodon dactylon; details: for Plant response rating (0 to 100), Bermudagrass: 250 g ai/ha
Method in brief: as §2

[8] = system: cocklebur; assay: Test C pre-/postemergence test; type: in vivo, Xanthium strumarium; details: for Plant response rating (0 to 100), Cocklebur: 250 g ai/ha
Method in brief: as §2

[9] = system: corn; assay: Test C pre-/postemergence test; type: in vivo, Zea mays; details: for Plant response rating (0 to 100), Corn: 250 g ai/ha
Method in brief: as §2

[10] = system: giant foxtail; assay: Test C pre-/postemergence test; type: in vivo, Setaria faberii; details: for Plant response rating (0 to 100), Foxtail, Giant: 250 g ai/ha
Method in brief: as §2

[11] = system: johnsongrass; assay: Test C pre-/postemergence test; type: in vivo, Sorghum halepense; details: for Plant response rating (0 to 100), Johnsongrass: 250 g ai/ha
Method in brief: as §2

[12] = system: kochia; assay: Test C pre-/postemergence test; type: in vivo, Kochia scoparia
Method in brief: as §2

[13] = system: morningglory; assay: Test C pre-/postemergence test; type: in vivo, Ipomoea coccinea
Method in brief: as §2

[14] = system: eastern black nightshade; assay: Test C pre-/postemergence test; type: in vivo, Solanum ptycanthum
Method in brief: as §2

[15] = system: yellow nutsedge; assay: Test C pre-/postemergence test; type: in vivo, Cyperus esculentus
Method in brief: as §2

[16] = system: common (oilseed) sunflower; assay: Test C pre-/postemergence test; type: in vivo, Helianthus annuus
Method in brief: as §2

[17] = system: rice; assay: Test C flooded paddy test; type: in vivo, Oryza sativa; details: Flood
Method in brief: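 Flooded 3 cm over soil; compound into paddy water; depth kept constant. Greenhouse 13–15 d.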

[18] = Postemergence, 125 g ai/ha, 0 is no effect, 100 is complete control
[19] = Postemergence, 500 g ai/ha, 0 is no effect, 100 is complete control
[20] = Preemergence, 125 g ai/ha, 0 no effect, 100 complete control
[21] = 31 g ai/ha, Preemergence, scale 0 to 100
[22] = 62 g ai/ha, preemergence, scale 0 (no effect) to 100 (complete control)
[23] = preemergence, 125 g ai/ha, scale 0 (no effect) to 100 (complete control)
[24] = 31 g ai/ha, scale 0 to 100 (0 no effect, 100 complete control)
[25] = 62 g ai/ha, scale 0 to 100, 0 no effect, 100 complete control, 13 to 15 days
[26] = 125 g ai/ha, scale 0 to 100, 0 no effect, 100 complete control, 13 to 15 days
[27] = 250 g ai/ha, scale 0 to 100 (0 no effect, 100 complete control)
[28] = 62 g ai/ha, Preemergence, scale 0 to 100
[29] = Preemergence, 31 g ai/ha, scale 0 to 100 (0 no effect, 100 complete control)

Cn1nc(C(F)(F)F)c(C(Cl)S(=O)(=O)c2cccc[n+]2[O-])c1Cl (centres unmarked) [Compound 12]
Morningglory plant response rating [1, 18]: 20 | Morningglory plant response rating [1, 19]: 30 | Morningglory plant response rating [1, 20]: 0 | Plant response rating, Morningglory ([1]; Preemergence, 500 g ai/ha): 60 | Pigweed plant response rating [2, 18]: 0 | Pigweed plant response rating [2, 19]: 0 | Corn plant response rating [3, 18]: 0 | Corn plant response rating [3, 19]: 0 | Corn plant response rating [3, 20]: 0 | Plant response rating, Corn ([3]; Preemergence, 500 g ai/ha): 30 | Ryegrass, Italian plant response rating [4, 21]: 0 | Ryegrass, Italian plant response rating [4, 22]: 70 | Plant response rating (0 to 100), Ryegrass, Italian ([4]; Preemergence, 250 g ai/ha): 85 | Ryegrass, Italian plant response rating [4, 23]: 70 | Wheat plant response rating [5, 22]: 0 | Plant response rating (0 to 100), Wheat ([5]; Preemergence, 250 g ai/ha): 20 | Wheat plant response rating [5, 23]: 0 | Oat, Wild plant response rating [6, 21]: 0 | Oat, Wild plant response rating [6, 22]: 0 | Plant response rating (0 to 100), Oat, Wild ([6]; Preemergence, 250 g ai/ha): 0 | Oat, Wild plant response rating [6, 23]: 0 | Bermudagrass plant response rating [7, 21]: 100 | Bermudagrass plant response rating [7, 22]: 100 | Plant response rating (0 to 100), Bermudagrass ([7]; Preemergence): 100 | Bermudagrass plant response rating [7, 23]: 100 | Cocklebur plant response rating [8, 21]: 0 | Cocklebur plant response rating [8, 22]: 0 | Plant response rating (0 to 100), Cocklebur ([8]; Preemergence): 0 | Cocklebur plant response rating [8, 23]: 0 | Corn plant response rating [9, 21]: 0 | Corn plant response rating [9, 22]: 0 | Plant response rating (0 to 100), Corn ([9]; Preemergence): 45 | Corn plant response rating [9, 23]: 0 | Foxtail, Giant plant response rating [10, 21]: 80 | Foxtail, Giant plant response rating [10, 22]: 80 | Plant response rating (0 to 100), Foxtail, Giant ([10]; Preemergence): 100 | Foxtail, Giant plant response rating [10, 23]: 80 | Johnsongrass plant response rating [11, 21]: 0 | Johnsongrass plant response rating [11, 22]: 70 | Plant response rating (0 to 100), Johnsongrass ([11]; Preemergence): 100 | Johnsongrass plant response rating [11, 23]: 100 | Kochia plant response rating [12, 21]: 0 | Kochia plant response rating [12, 22]: 0 | Plant response rating (0 to 100), Kochia ([12]; Preemergence, 250 g ai/ha): 80 | Morningglory plant response rating [13, 21]: 0 | Morningglory plant response rating [13, 22]: 0 | Plant response rating (0 to 100), Morningglory ([13]; Preemergence, 250 g ai/ha): 80 | Morningglory plant response rating [13, 23]: 5 | Nightshade plant response rating [14, 21]: 100 | Nightshade plant response rating [14, 22]: 100 | Plant response rating (0 to 100), Nightshade ([14]; Preemergence, 250 g ai/ha): 100 | Nightshade plant response rating [14, 23]: 100 | Nutsedge, Yellow plant response rating [15, 21]: 45 | Nutsedge, Yellow plant response rating [15, 22]: 70 | Plant response rating (0 to 100), Nutsedge, Yellow ([15]; Preemergence, 250 g ai/ha): 100 | Nutsedge, Yellow plant response rating [15, 23]: 90 | Sunflower plant response rating [16, 22]: 0 | Plant response rating (0 to 100), Sunflower ([16]; Preemergence, 250 g ai/ha): 20 | Sunflower plant response rating [16, 23]: 0 | Plant response rating, Rice [17, 24]: 60 | Plant response rating, Rice [17, 25]: 60 | Plant response rating, Rice [17, 26]: 70 | Plant response rating, Rice [17, 27]: 80

Cn1nc(C(F)(F)F)c(CS(=O)(=O)c2ccc(Cl)c[n+]2[O-])c1Cl [Compound 18]
Morningglory plant response rating [1, 18]: 0 | Morningglory plant response rating [1, 19]: 20 | Morningglory plant response rating [1, 20]: 0 | Plant response rating, Morningglory ([1]; Preemergence, 500 g ai/ha): 20 | Pigweed plant response rating [2, 18]: 0 | Pigweed plant response rating [2, 19]: 60 | Pigweed plant response rating [2, 20]: 90 | Plant response rating, Pigweed ([2]; Preemergence, 500 g ai/ha, 0 to 100 scale where 0 is no effect and 100 is complete control): 100 | Corn plant response rating [3, 18]: 0 | Corn plant response rating [3, 19]: 50 | Corn plant response rating [3, 20]: 0 | Plant response rating, Corn ([3]; Preemergence, 500 g ai/ha): 0 | Ryegrass, Italian plant response rating [4, 28]: 0 | Plant response rating, Ryegrass, Italian [4, 29]: 0 | Wheat plant response rating [5, 28]: 0 | Plant response rating, Wheat [5, 29]: 0 | Oat, Wild plant response rating [6, 28]: 0 | Plant response rating, Oat, Wild [6, 29]: 0 | Bermudagrass plant response rating ([7]; 62 g ai/ha, Preemergence, scale 0 to 100 (0 no effect, 100 complete control)): 100 | Plant response rating, Bermudagrass [7, 29]: 90 | Plant response rating (0 to 100), Bermudagrass ([7]; Preemergence): 100 | Bermudagrass plant response rating [7, 23]: 100 | Cocklebur plant response rating [8, 28]: 0 | Plant response rating, Cocklebur [8, 29]: 0 | Plant response rating (0 to 100), Cocklebur ([8]; Preemergence): 0 | Cocklebur plant response rating [8, 23]: 0 | Corn plant response rating [9, 28]: 0 | Plant response rating, Corn [9, 29]: 0 | Plant response rating (0 to 100), Corn ([9]; Preemergence): 15 | Corn plant response rating [9, 23]: 0 | Foxtail, Giant plant response rating [10, 28]: 85 | Plant response rating, Foxtail, Giant [10, 29]: 65 | Plant response rating (0 to 100), Foxtail, Giant ([10]; Preemergence): 100 | Johnsongrass plant response rating [11, 28]: 100 | Plant response rating, Johnsongrass [11, 29]: 5 | Plant response rating (0 to 100), Johnsongrass ([11]; Preemergence): 100 | Kochia plant response rating [12, 28]: 0 | Plant response rating, Kochia [12, 29]: 0 | Morningglory plant response rating [13, 28]: 0 | Plant response rating, Morningglory [13, 29]: 0 | Nightshade plant response rating [14, 28]: 60 | Plant response rating, Nightshade [14, 29]: 60 | Nutsedge, Yellow plant response rating [15, 28]: 0 | Plant response rating, Nutsedge, Yellow [15, 29]: 0 | Sunflower plant response rating [16, 28]: 0 | Plant response rating, Sunflower [16, 29]: 0 | Plant response rating, Rice [17, 24]: 30 | Plant response rating, Rice [17, 25]: 40 | Plant response rating, Rice [17, 26]: 80 | Plant response rating, Rice [17, 27]: 80
